Measured values as given in patent US20110046223A1, “TREATMENT OF NEUROFIBROMATOSIS” (RAMOT AT TEL-AVIV UNIVERSITY LTD., priority 2006, published 2011).

Legend:
[1] = test system: NF-1−/− and NF-1+/− SV40 MEFs; test: colchicine-induced death, cell viability by MTT assay; type: cell-based, mouse; conditions: NF-1−/− and NF-1+/− cells; 75 μM FTS or vehicle 24 h, then colchicine 4.5 h
Experimental: (§1) Human NF-1 ST88-14 MPNST, non-NF-1 STS26T MPNST, and the different primary and SV40-immortalized NF-1 genotypes (NF-1^−/−, NF-1^+/−, and NF-1^+/+) of mouse embryonic fibroblasts (MEFs) were grown in high-glucose Dulbecco's modified Eagle's medium (DMEM) supplemented with 10% heat-inactivated fetal calf serum (both from Biological Industries, Beit Ha Emek, Israel) with 0.0004% β-mercaptoethanol added to the MEF growth medium only.
(§2) The three primary NF-1 MEF genotypes were immortalized by transfection with SV40 whole genome DNA (a gift from Dr. Atan Gross, The Weizmann Institute of Science) using the lipofectamine transfection reagent (InvitroGen Life Technologies, Paisley, UK). One day before transfection, primary MEFs were seeded at a density of 2×10^5 cells per well in 6-well plates. To each dish we added 1 ml of DNA-lipofectamine mixture, 0.1 μg SV40 whole genome DNA, and 10 μg of lipofectamine in 1 ml of OptiMEM (InvitroGen), according to the manufacturer's instructions. The cells were split 24 h after transfection and seeded in 10-cm^2 dishes at a density of 1×10^3 to 1×10^4 cells per dish. Immortalized clones from each NF-1 genotype were collected 14 days after transfection.
(§3) Cell viability was determined by the MTT assay.

NF-1+/+ SV40 MEFs = test: as above; type: cell-based, mouse; conditions: NF-1+/+ cells; 75 μM FTS or vehicle 24 h, then colchicine 4.5 h
Experimental: as §1, §2, §3

Compound: COc1cc2c(c(OC)c1OC)-c1ccc(OC)c(=O)cc1[C@@H](NC(C)=O)CC2 [colchicine, Acetamide, N-((7S)-5,6,7,9-tetrahydro-1,2,3,10-tetramethoxy-9-oxobenzo(a)heptalen-7-yl)-]
- cell survival / colchicine-induced cell death [1]: only a small effect on cell survival
- cell survival / colchicine-induced cell death (NF-1+/+ SV40 MEFs): induced death
